Test results: patent US20250115598A1 (Anaxis Pharma Pty Ltd, priority 2021, published 2025)

Legend:
[1] = tested on: U937 human histiocytic leukemia cell line; experiment: Cellular assay: inhibition of TSQ induced necroptosis, CellTitre-Glo viability; details: Homo sapiens, U-937; U937 cells, 48 hours, TSQ cocktail, Table 26; read-out: Inhibition of TSQ-induced necroptosis (IC50 cell-based assay)
Protocol: Cellular Assay: Screening Compounds for Inhibition of TSQ Induced Necroptosis, 384 Well Plate Format.
(§1) • Cell Line ID: U937 human histiocytic leukemia cell line. • Cell Concentration (cells/well): Final cell density is 20000 cells per well. • Cell growth medium: HT-RPMI medium+7.4% Fetal Bovine Serum (FBS). Cells are cultured in Corning 150 cm^2 tissue culture flasks with vented caps at 37° C./5% CO2. • Incubation: Plates were incubated at 37° C./5% CO2 in a humidified incubator for 48 hours following addition of compounds and death stimuli (TSQ cocktail). • Compound concentration: 36 μM starting concentration, 1:3 dilution, 10 point • DMSO final concentration (% v/v): 0.3%. Compounds in TSQ Cocktail (T: TNF; S: Smac Mimetic; Q: Q-VD-OPh) and their Final Concentrations: • hTNF-Fc (100 ng/ml)—produced by standard procedures as shown in Bossen et al., J. Biol. Chem., 2006, 281(20), 13964-13971. • Compound A (500 nM)—Smac mimetic, Tetralogic and SYNthesis med chem • Q-VD-OPh (10 μM)—MP Biomedicals
(§2) The cellular assay was carried out according to the following steps: • 1. Each well was prepared by sequential addition of: • a. DMSO (control; columns 1-2 and 23-24) or compound in DMSO—addition was performed using acoustic transfer of nL volumes of stock compound to give final test concentrations of 36, 12, 4, 1.3, 0.44, 0.148, 0.049, 0.016, 0.005 and 0.002 μM. All wells were backfilled with DMSO to a final total volume in the well of 100 nL. • b. Following compound/DMSO addition in step (a), 40 μL of cell suspension (5×10^5 cells/mL) was added to provide a final cell concentration of 20,000 cells per well, and • c. Following cell addition in step (b), 10 μL of 5×TSQ cocktail (except to positive controls; columns 1 and 23) was added to each well. • 2. After 48 hours, plate was removed from the 37° C. incubator and equilibrated to room temperature for 45 minutes. • 3.15 μL of room temperature CellTitre-Glo2™ (Promega™) was added to each well. • 4. Shook plates for 2 minutes (˜600 rpm) and incubated at room temperature for 15 minutes to allow signal to stabilise. • 5. Read luminescence readout on a plate reader.
Percent viability was calculated for each compound according to equation (2):
(§3) • Assay involving the TSQ cocktail (T: TNF; S: Smac mimetic; Q: Q-VD-OPh): TSQ treatment ensures that cells specifically undergo necroptotic cell death. TNF activates the TNF receptor, Smac mimetic directs the signal away from proinflammatory signaling and toward the RIPK1/RIPK3-mediated cell death pathways, and Q-VD-OPh ensures that the apoptotic response is blocked leaving only the programmed necrosis response. The compounds' activity (solution in DMSO) tested in this TSQ-induced assay was evaluated by determining the number of viable cells in culture by measuring the amount of ATP present as measured by CelltiterGlo. • Counter screen: In parallel, all compounds were tested for their ability to affect cell viability. The same U937 cells were treated with compound in DMSO without the TSQ cocktail. This counter screen enabled evaluation of off-target effects. In this case, cell viability was measured by CelltiterGlo.

[2] = target: endogenous MLKL in U937 (Homo sapiens (Human), UniProt Q8NB16); experiment: Degradation assay: endogenous MLKL in U937 (western blot); details: U937, 24 h incubation, read-out: Degradation of endogenous MLKL in U937 (DC50 cell-based assay)
Chain of endogenous MLKL in U937 (Q8NB16 whole entry): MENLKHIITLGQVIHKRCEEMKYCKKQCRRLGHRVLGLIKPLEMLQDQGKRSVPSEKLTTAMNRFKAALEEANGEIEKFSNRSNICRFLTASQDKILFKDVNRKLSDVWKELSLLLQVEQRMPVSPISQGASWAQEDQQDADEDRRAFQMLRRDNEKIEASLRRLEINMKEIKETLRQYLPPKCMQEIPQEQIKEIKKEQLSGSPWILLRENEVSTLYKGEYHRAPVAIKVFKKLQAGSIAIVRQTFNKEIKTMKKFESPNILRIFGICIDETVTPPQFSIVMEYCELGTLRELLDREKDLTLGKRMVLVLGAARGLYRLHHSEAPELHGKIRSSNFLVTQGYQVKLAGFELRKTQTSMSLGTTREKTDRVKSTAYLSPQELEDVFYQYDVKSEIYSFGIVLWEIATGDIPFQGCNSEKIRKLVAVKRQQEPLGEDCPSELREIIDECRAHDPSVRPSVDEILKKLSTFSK
Outline: (§4)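 Western blot band intensity of MLKL, adjusted to GAPDH loading and normalized to DMSO-only wells, gave percent degradation. Compound exposure lasted 24 h at final concentrations of 10–0.016 μM in 1:5 steps, in mouse dermal fibroblasts or human U937 cells.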

[3] = tested on: U937 cells; experiment: Counter screen: cell viability without the TSQ cocktail (off-target effect); parameters: species or system human; details: Homo sapiens, U-937, Table 26, read-out: Off-target effect (IC50 cell-based assay)
Protocol: as §1, §2, §3

[4] = target: human MLKL (full length) (Homo sapiens (Human), UniProt Q8NB16); experiment: KINOMEscan binding assay, human MLKL (full length); details: hMLKL, Table 25; read-out: MLKL (KD)
Chain of human MLKL (full length) (Q8NB16 whole entry): as above
Outline: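 Tagged kinase + immobilized ligand beads + compound; eluted kinase quantified by qPCR. Kinase source: T7 phage lysate (BL21-derived E. coli, 32 °C) or HEK-293 with DNA tag. 11-pt 3-fold series, 1% DMSO, top 30,000 nM (most). Hill fit, slope −1 → Kd.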

[5] = tested on: Immortalised Mouse Dermal Fibroblasts (MDFs); experiment: Cellular assay: inhibition of TSI induced necroptosis, CellTitre-Glo viability; details: Mus musculus, Fibroblast; MDF, 3 hours TSI cocktail, Table 27; read-out: Inhibition of TSI-induced necroptosis (IC50 cell-based assay) in MDF
Outline: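 Necroptosis induced for 3 h with TSI: rhTNF 100 ng/ml, Smac mimetic 500 nM, caspase inhibitor IDN-6556 10 μM. Mouse dermal fibroblasts had received compound (36 μM top, ten three-fold steps) 30 min beforehand. ATP-based viability scaled between untreated and TSI-only wells; IC50 taken as 4-parameter curve inflection.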

[6] = target: endogenous MLKL in MDF (Mus musculus (Mouse), UniProt Q9D2Y4); experiment: Degradation assay: endogenous MLKL in MDF (western blot); details: MDF cells, 24 h incubation with compound, MLKL adjusted for loading with GAPDH, normalized to DMSO only control, read-out: Degradation of endogenous MLKL in MDF (DC50 cell-based assay)
Chain of endogenous MLKL in MDF (Q9D2Y4 whole entry): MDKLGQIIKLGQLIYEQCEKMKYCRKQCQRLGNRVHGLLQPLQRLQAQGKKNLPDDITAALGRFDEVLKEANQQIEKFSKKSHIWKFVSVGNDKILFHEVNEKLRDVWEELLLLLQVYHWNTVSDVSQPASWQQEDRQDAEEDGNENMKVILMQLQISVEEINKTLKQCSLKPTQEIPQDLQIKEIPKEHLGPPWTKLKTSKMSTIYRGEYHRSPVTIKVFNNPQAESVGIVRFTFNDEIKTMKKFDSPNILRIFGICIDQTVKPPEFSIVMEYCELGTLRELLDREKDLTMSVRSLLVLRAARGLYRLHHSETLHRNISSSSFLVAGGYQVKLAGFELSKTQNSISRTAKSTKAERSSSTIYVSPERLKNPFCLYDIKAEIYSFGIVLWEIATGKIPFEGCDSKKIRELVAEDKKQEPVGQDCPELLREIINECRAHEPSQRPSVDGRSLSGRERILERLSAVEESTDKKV
Outline: as §4

Structure (SMILES) | DC50 [2] [nM] | Kd [4] [nM] | DC50 [6] [nM] | IC50 [1] [nM] | IC50 [3] [nM] | IC50 [5] [nM]
CCS(=O)(=O)Nc1ccc(-c2n[nH]c3c(-c4cnn(CCOCCOCC(=O)N[C@H](C(=O)N5C[C@H](O)C[C@H]5C(=O)NCc5ccc(-c6scnc6C)cc5)C(C)(C)C)c4)cnc(N)c23)cc1OCc1ccc(F)cc1 [Compound 1005, (2S,4R)-1-[(2S)-2-[2-(2-{2-[4-(4-amino-3-{4-ethanesulfonamido-3-[(4-fluorophenyl)methoxy]phenyl}-1H-pyrazolo[4,3-c]pyridin-7-yl)-1H-pyrazol-1-yl]ethoxy}ethoxy)acetamido]-3,3-dimethylbutanoyl]-4-hydroxy-N-{[4-(4-methyl-1,3-thiazol-5-yl)phenyl]methyl}pyrrolidine-2-carboxamide] | 1000 to 10000 | < 10 | – | 1000 to 10000 | > 10000 | –
Cc1ncsc1-c1ccc(CNC(=O)[C@@H]2C[C@@H](O)CN2C(=O)[C@@H](NC(=O)CCN2CC(n3cc(-c4cnc(N)c5c(-c6ccc(NS(=O)(=O)C(F)F)c(O[C@@H](C)c7ccc(F)cc7)c6)nn(C)c45)cn3)C2)C(C)(C)C)cc1 [Compound 1010, (2S,4R)-1-[(2S)-2-{3-[3-(4-{4-amino-3-[4-(difluoromethanesulfonamido)-3-[(1S)-1-(4-fluorophenyl)ethoxy]phenyl]-1-methyl-1H-pyrazolo[4,3-c]pyridin-7-yl}-1H-pyrazol-1-yl)azetidin-1-yl]propanamido}-3,3-dimethylbutanoyl]-4-hydroxy-N-{[4-(4-methyl-1,3-thiazol-5-yl)phenyl]methyl}pyrrolidine-2-carboxamide] | 1000 to 10000 | < 10 | – | 1000 to 10000 | > 10000 | –
Cc1ncsc1-c1ccc(CNC(=O)[C@@H]2C[C@@H](O)CN2C(=O)[C@@H](NC(=O)CN2CCC(n3cc(-c4cnc(N)c5c(-c6ccc(NS(=O)(=O)C(F)F)c(O[C@@H](C)c7ccc(F)cc7)c6)nn(C)c45)cn3)C2)C(C)(C)C)cc1 (stereo partly drawn) [Compound 1011, (2S,4R)-1-[(2S)-2-{2-[3-(4-{4-amino-3-[4-(difluoromethanesulfonamido)-3-[(1S)-1-(4-fluorophenyl)ethoxy]phenyl]-1-methyl-1H-pyrazolo[4,3-c]pyridin-7-yl}-1H-pyrazol-1-yl)pyrrolidin-1-yl]acetamido}-3,3-dimethylbutanoyl]-4-hydroxy-N-{[4-(4-methyl-1,3-thiazol-5-yl)phenyl]methyl}pyrrolidine-2-carboxamide] | 1000 to 10000 | – | – | 1000 to 10000 | > 10000 | –
Cc1ncsc1-c1ccc(CNC(=O)[C@@H]2C[C@@H](O)CN2C(=O)[C@@H](NC(=O)CN2CCC(n3cc(-c4cnc(N)c5c(-c6ccc(NS(=O)(=O)C(F)F)c(O[C@@H](C)c7ccc(F)cc7)c6)nn(C)c45)cn3)CC2)C(C)(C)C)cc1 [Compound 1016, (2S,4R)-1-[(2S)-2-{2-[4-(4-{4-amino-3-[4-(difluoromethanesulfonamido)-3-[(1S)-1-(4-fluorophenyl)ethoxy]phenyl]-1-methyl-1H-pyrazolo[4,3-c]pyridin-7-yl}-1H-pyrazol-1-yl)piperidin-1-yl]acetamido}-3,3-dimethylbutanoyl]-4-hydroxy-N-{[4-(4-methyl-1,3-thiazol-5-yl)phenyl]methyl}pyrrolidine-2-carboxamide] | – | – | – | < 1000 | > 10000 | < 1000

Continued, in another order:

DC50 [2] [nM] | Kd [4] [nM] | DC50 [6] [nM] | Structure (SMILES) | IC50 [1] [nM] | IC50 [3] [nM] | IC50 [5] [nM]
1000 to 10000 | < 10 | – | CCS(=O)(=O)Nc1ccc(-c2n[nH]c3c(-c4cnn(CCCCCCC(=O)N[C@H](C(=O)N5C[C@H](O)C[C@H]5C(=O)NCc5ccc(-c6scnc6C)cc5)C(C)(C)C)c4)cnc(N)c23)cc1OCc1ccc(F)cc1 [Compound 1003, (2S,4R)-1-[(2S)-2-{7-[4-(4-amino-3-{4-ethanesulfonamido-3-[(4-fluorophenyl)methoxy]phenyl}-1H-pyrazolo[4,3-c]pyridin-7-yl)-1H-pyrazol-1-yl]heptanamido}-3,3-dimethylbutanoyl]-4-hydroxy-N-{[4-(4-methyl-1,3-thiazol-5-yl)phenyl]methyl}pyrrolidine-2-carboxamide] | > 10000 | > 10000 | –
1000 to 10000 | < 10 | – | Cc1ncsc1-c1ccc(CNC(=O)[C@@H]2C[C@@H](O)CN2C(=O)[C@@H](NC(=O)COCCOCCOCCn2cc(-c3cnc(N)c4c(-c5ccc(NS(=O)(=O)C(F)F)c(O[C@@H](C)c6ccc(F)cc6)c5)nn(C)c34)cn2)C(C)(C)C)cc1 [Compound 1009, (2S,4R)-1-[(2S)-2-[2-(2-{2-[2-(4-{4-amino-3-[4-(difluoromethanesulfonamido)-3-[(1S)-1-(4-fluorophenyl)ethoxy]phenyl]-1-methyl-1H-pyrazolo[4,3-c]pyridin-7-yl}-1H-pyrazol-1-yl)ethoxy]ethoxy}ethoxy)acetamido]-3,3-dimethylbutanoyl]-4-hydroxy-N-{[4-(4-methyl-1,3-thiazol-5-yl)phenyl]methyl}pyrrolidine-2-carboxamide] | < 1000 | 1000 to 10000 | –
1000 to 10000 | < 10 | – | Cc1ncsc1-c1ccc(CNC(=O)[C@@H]2C[C@@H](O)CN2C(=O)[C@@H](NC(=O)CCN2CCC(n3cc(-c4cnc(N)c5c(-c6ccc(NS(=O)(=O)C(F)F)c(O[C@@H](C)c7ccc(F)cc7)c6)nn(C)c45)cn3)C2)C(C)(C)C)cc1 (stereo partly drawn) [Compound 1012, (2S,4R)-1-[(2S)-2-{3-[3-(4-{4-amino-3-[4-(difluoromethanesulfonamido)-3-[(1S)-1-(4-fluorophenyl)ethoxy]phenyl]-1-methyl-1H-pyrazolo[4,3-c]pyridin-7-yl}-1H-pyrazol-1-yl)pyrrolidin-1-yl]propanamido}-3,3-dimethylbutanoyl]-4-hydroxy-N-{[4-(4-methyl-1,3-thiazol-5-yl)phenyl]methyl}pyrrolidine-2-carboxamide] | 1000 to 10000 | > 10000 | –
– | – | 1000 to 10000 | Cc1ncsc1-c1ccc(CNC(=O)[C@@H]2C[C@@H](O)CN2C(=O)[C@@H](NC(=O)CN2CCC(C#Cc3cnc(N)c4c(-c5ccc(NS(=O)(=O)C(F)F)c(O[C@@H](C)c6ccc(F)cc6)c5)nn(C)c34)CC2)C(C)(C)C)cc1 [Compound 1023, (2S,4R)-1-[(2S)-2-{2-[4-(2-{4-amino-3-[4-(difluoromethanesulfonamido)-3-[(1S)-1-(4-fluorophenyl)ethoxy]phenyl]-1-methyl-1H-pyrazolo[4,3-c]pyridin-7-yl}ethynyl)piperidin-1-yl]acetamido}-3,3-dimethylbutanoyl]-4-hydroxy-N-{[4-(4-methyl-1,3-thiazol-5-yl)phenyl]methyl} pyrrolidine-2-carboxamide] | < 1000 | > 10000 | –
